The values below come from patent publication US20260083865A1, “PROSTATE SPECIFIC MEMBRANE ANTIGEN (PSMA) LIGANDS AND USE THEREOF” (priority 2022, published 2026).

The target of assay [1] is T1, PSMA-expressing C4-2 cells (Homo sapiens, UniProt Q04609).
T1 construct: PSMA-expressing C4-2 cells (ATCC, Cat. No. CRL-3314) were cultured in RPMI-1640; host or cells: C4-2 cells
As to the kind of experiment: FACS binding assay (competition with 50 nM PSM-0183). The settings on record: for IC50: read-out: pIC50 [C4-2] CAT (converted). An outline of the steps: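 Competition format: fluorescent tracer PSM-0183 (50 nM) displaced from PSMA on C4-2 cells by a test compound titration over 1 h at 4 °C. Bound tracer was quantified as flow-cytometric AF488 median fluorescence after washing. Four-parameter logistic fits of MFI data gave IC50 and pIC50.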
Background: In flow cytometry, cells or beads pass a laser one at a time.

Assay [2] concerns the target T2, Fc-fusion protein of human PSMA (hPSMA-Fc) (Homo sapiens, UniProt Q04609).
T2 construct: purchased Acro Biosystems PSA-H5264
As to the kind of experiment: Surface plasmon resonance assay (Biacore T200, single cycle kinetic). It is filed as binding. The settings on record: for Kd: hPSMA-Fc, 25° C., read-out: pKD CAT (converted). Put shortly:
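KD, expressed as pKD, came from 1:1 Langmuir fits of reference- and buffer-blank-subtracted SPR data. The runs were single-cycle kinetics at 25° C in HBST/0.1% DMSO over human PSMA-Fc, captured to ~1000 RU on a peptide-coated CM5 surface and regenerated with 10 mM glycine pH 1.5.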
For orientation: In SPR one partner is held on a chip, and binding of the other changes the refractive index at the surface.

Setting [3] is: pIC50 category of FACS binding, C4-2 cells.
[4] abbreviates: pKD category for PSMA SPR activity assay.
Where [5] appears, read: FACS binding, PSMA-expressing C4-2 cells, pIC50 category.

Like-named read-outs stand apart in the source and are kept apart here. Numbered stars: 1 amine (or outer) side, 2 acyl side, 3 side chain; on linkers, the order of the positions; unused ones are H or OH. Bridge positions count the residues as written; N and C are the ends. Square brackets hold non-standard residues; d marks the D form. Peptide text beside a SMILES is read from it. * marks the point of attachment. DOTA = O=C(O)CN1CCN(CC(=O)O)CCN(CC(=O)*)CCN(CC(=O)O)CC1; Phe(4-Cl) = N[C@@H](Cc1ccc(Cl)cc1)C(=O)O; Phe(3-Me) = Cc1cccc(C[C@H](N)C(=O)O)c1; Arg(Me) = CNC(=N)NCCC[C@H](N)C(=O)O; 4Pal = N[C@@H](Cc1ccncc1)C(=O)O; X1 = O=C(CC1CCN([*:1])CC1)[*:2]; Cit = NC(=O)NCCC[C@H](N)C(=O)O; Lys(Me) = CNCCCC[C@H](N)C(=O)O; Tle = CC(C)(C)[C@H](N)C(=O)O; Aib = CC(C)(N)C(=O)O

T2 sequence (Q04609 44-750 limits assumed): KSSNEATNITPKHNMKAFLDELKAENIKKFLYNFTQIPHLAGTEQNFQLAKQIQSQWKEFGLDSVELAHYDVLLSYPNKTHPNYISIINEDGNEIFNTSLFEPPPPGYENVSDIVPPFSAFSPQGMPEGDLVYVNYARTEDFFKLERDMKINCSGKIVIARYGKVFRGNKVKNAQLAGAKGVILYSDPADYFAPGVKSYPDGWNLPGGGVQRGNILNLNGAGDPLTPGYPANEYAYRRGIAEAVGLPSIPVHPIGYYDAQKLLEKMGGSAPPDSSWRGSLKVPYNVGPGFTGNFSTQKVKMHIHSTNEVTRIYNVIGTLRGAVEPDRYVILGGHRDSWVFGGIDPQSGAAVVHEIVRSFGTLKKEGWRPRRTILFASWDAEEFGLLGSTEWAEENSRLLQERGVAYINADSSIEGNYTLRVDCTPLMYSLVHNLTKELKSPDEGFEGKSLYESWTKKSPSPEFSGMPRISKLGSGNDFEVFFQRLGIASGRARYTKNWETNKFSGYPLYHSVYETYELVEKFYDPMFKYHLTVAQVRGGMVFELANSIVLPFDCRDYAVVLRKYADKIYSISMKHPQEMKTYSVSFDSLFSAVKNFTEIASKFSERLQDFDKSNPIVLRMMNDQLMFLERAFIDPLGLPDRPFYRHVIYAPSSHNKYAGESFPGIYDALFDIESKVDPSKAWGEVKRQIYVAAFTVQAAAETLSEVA
T1 sequence (Q04609 whole entry): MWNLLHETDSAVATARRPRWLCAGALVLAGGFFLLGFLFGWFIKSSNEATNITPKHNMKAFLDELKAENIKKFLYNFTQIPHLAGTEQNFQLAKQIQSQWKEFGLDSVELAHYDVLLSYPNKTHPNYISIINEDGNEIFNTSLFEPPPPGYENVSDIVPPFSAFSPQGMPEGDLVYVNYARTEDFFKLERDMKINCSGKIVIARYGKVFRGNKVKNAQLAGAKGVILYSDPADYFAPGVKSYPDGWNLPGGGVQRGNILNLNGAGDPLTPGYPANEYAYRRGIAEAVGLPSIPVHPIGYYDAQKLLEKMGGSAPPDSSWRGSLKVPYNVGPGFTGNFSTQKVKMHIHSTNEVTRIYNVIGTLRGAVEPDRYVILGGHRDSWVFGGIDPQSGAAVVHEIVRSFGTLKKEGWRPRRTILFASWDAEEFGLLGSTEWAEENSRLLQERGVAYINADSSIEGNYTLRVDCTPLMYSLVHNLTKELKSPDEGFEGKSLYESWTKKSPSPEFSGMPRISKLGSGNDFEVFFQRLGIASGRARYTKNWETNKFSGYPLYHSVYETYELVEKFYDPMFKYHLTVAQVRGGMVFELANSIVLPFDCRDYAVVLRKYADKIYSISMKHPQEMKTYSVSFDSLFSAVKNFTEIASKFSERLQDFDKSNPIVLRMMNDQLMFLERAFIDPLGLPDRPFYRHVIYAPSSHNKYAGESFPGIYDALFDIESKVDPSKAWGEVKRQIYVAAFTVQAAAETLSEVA

With `C[C@@H](O)[C@H](NC(=O)[C@@H](NC(=O)[C@@H]1CSSC[C@H](NC(=O)[C@H](Cc2ccncc2)NC(=O)C(C)(C)NC(=O)[C@@H](NC(=O)CC2CCN(C(=O)CN3CCN(CC(=O)O)CCN(CC(=O)O)CCN(CC(=O)O)CC3)CC2)[C@@H](C)O)C(=O)N[C@@H](CCCCN)C(=O)N[C@@H](CCCNC(=N)N)C(=O)NC(C)(C)C(=O)N[C@@H](CC(N)=O)C(=O)N1)C(C)(C)C)C(N)=O` [PSM-0454, DOTA-Cmp-Thr-Aib-Ppa-[Cys-Lys-Cit-Aib-Asn-Cys]-Tle-Thr-NH2] ({DOTA}-[X1]T[Aib][4Pal]CKR[Aib]NC[Tle]T-NH2; disulfide 5-10), the IC50 in assay [1] (setting [3]) is 1260 to 3160 nM. Further, the Kd in assay [2] (setting [4]) is 126 to 501 nM.
As for `CNCCCC[C@@H]1NC(=O)[C@@H](NC(=O)[C@H](Cc2cccc(C)c2)NC(=O)C(C)(C)NC(=O)[C@@H](NC(=O)CC2CCN(C(=O)CN3CCN(CC(=O)O)CCN(CC(=O)O)CCN(CC(=O)O)CC3)CC2)[C@@H](C)O)CSSC[C@@H](C(=O)N[C@H](C(N)=O)C(C)(C)C)NC(=O)[C@H](CC(N)=O)NC(=O)C(C)(C)NC(=O)[C@H](CCCNC(=N)NC)NC1=O` [PSM-0503, DOTA-Cmp-Thr-Aib-Mmf-[Cys-Lys(Me)-Arg(Me)-Aib-Asn-Cys]-Tle-NH2] ({DOTA}-[X1]T[Aib][Phe(3-Me)]C[Lys(Me)][Arg(Me)][Aib]NC[Tle]-NH2; disulfide 5-10), in assay [1] (setting [3]), the IC50 is under 200 nM. In addition, the Kd in assay [2] (setting [4]) is 12.6 to 126 nM.
As for “InLSC-Cmp-Thr-Aib-Pcf-[Cys-Lys(Me)-Arg(Me)-Aib-Asn-Cys]-Tle-Thr-NH2 [PSM-0604]”, in assay [1] (FACS binding, C4-2 cells, category), the “pIC50 [C4-2] CAT” value is on record as “A (pIC50 values >6.7)”. In assay [2] (PSMA SPR assay, category), the “pKD CAT” value was “A (pKD values >7.9)”.
Consider `CC(=O)N[C@H](C(=O)NC(C)(C)C(=O)N[C@@H](Cc1ccccc1)C(=O)N[C@H]1CSSC[C@@H](C(=O)N[C@H](C(=O)N[C@H](C(=O)N2CCC(CC(=O)N[C@H](CCCCNC(=O)CN3CCN(CC(=O)O)CCN(CC(=O)O)CCN(CC(=O)O)CC3)C(N)=O)CC2)[C@@H](C)O)C(C)(C)C)NC(=O)[C@H](CC(N)=O)NC(=O)C(C)(C)NC(=O)[C@H](CCCNC(N)=O)NC(=O)[C@H](CCCCN)NC1=O)[C@@H](C)O` [PSM-0252, Ac-Thr-Aib-Phe-[Cys-Lys-Cit-Aib-Asn-Cys]-Tle-Thr-Cmp-lys(DOTA)-NH2] (Ac-T[Aib]FCK[Cit][Aib]NC[Tle]T[X1][dK](DOTA)-NH2; disulfide 4-9), for which, in assay [1] (FACS binding, C4-2 cells, competition with 50 nM PSM-0183, category), the IC50 is 200 to 1260 nM. Also, the Kd in assay [2] (SPR, single cycle kinetic, category) was over 501 nM.
Turning to `CC(=O)NC(C)(C)C(=O)N[C@@H](Cc1ccc(Cl)cc1)C(=O)N[C@H]1CSSC[C@@H](C(N)=O)NC(=O)[C@H](CC(N)=O)NC(=O)C(C)(C)NC(=O)[C@H](CCCNC(=N)N)NC(=O)[C@H](CCCCN)NC1=O` [PSM-0443, Ac-Aib-Pcf-[Cys-Lys-Arg-Aib-Asn-Cys]-NH2] (Ac-[Aib][Phe(4-Cl)]CKR[Aib]NC-NH2; disulfide 3-8), the IC50 in assay [1] (setting [3]) was 200 to 1260 nM. Besides, the Kd in assay [2] (setting [4]) was over 501 nM.
As to `CNC(=N)NCCC[C@@H]1NC(=O)[C@H](CCCCN)NC(=O)[C@@H](NC(=O)[C@H](Cc2ccc(Cl)cc2)NC(=O)C(C)(C)NC(=O)[C@@H](NC(=O)CC2CCN(C(=O)CN3CCN(CC(=O)O)CCN(CC(=O)O)CCN(CC(=O)O)CC3)CC2)[C@@H](C)O)CSSC[C@@H](C(=O)N[C@H](C(N)=O)C(C)(C)C)NC(=O)[C@H](CC(N)=O)NC(=O)C(C)(C)NC1=O` [PSM-0345, DOTA-Cmp-Thr-Aib-Pcf-[Cys-Lys-Arg(Me)-Aib-Asn-Cys]-Tle-NH2] ({DOTA}-[X1]T[Aib][Phe(4-Cl)]CK[Arg(Me)][Aib]NC[Tle]-NH2; disulfide 5-10), the IC50 in assay [1] (setting [5]) was under 200 nM. Besides, the Kd in assay [2] (PSMA SPR assay, pKD category) was under 12.6 nM.
Regarding `CCCC[C@H](NC(=O)[C@@H]1CSSC[C@H](NC(=O)[C@H](Cc2ccccc2)NC(=O)[C@H](C)NC(=O)[C@@H](NC(C)=O)[C@@H](C)O)C(=O)N[C@@H](CCCCN)C(=O)N[C@@H](CCCNC(=N)N)C(=O)N[C@@H](C)C(=O)N[C@@H](CC(N)=O)C(=O)N1)C(=O)N[C@H](C(=O)N[C@@H](CC(=O)O)C(N)=O)[C@@H](C)O` [PSM-0287, Ac-Thr-Ala-Phe-[Cys-Lys-Arg-Ala-Asn-Cys]-Nle-Thr-Asp-NH2], in assay [1] (setting [5]), the IC50 is under 200 nM. The Kd in assay [2] (PSMA SPR assay, pKD category) is 12.6 to 126 nM.
